Results taken from US20150065421A1, “BASAL INSULIN THERAPY” (SANOFI, priority 2012, published 2015).

How the values were obtained:
[1] = system: people at high risk for vascular disease with either IFG, IGT, or early type 2 diabetes; test: ORIGIN trial: glycemic control (FPG, A1C); type: in vivo, human
Description: Participants were asked to self-administer daily subcutaneous saline injections and to check their capillary glucose levels during a 10 day run-in period. Adherent participants were then provided with lifestyle advice and randomly allocated to either insulin glargine (Lantus™) or standard approaches to glycaemic control. Participants allocated to insulin glargine who were also taking a thiazolidinedione stopped that medication at the time of randomization; otherwise the insulin glargine was added to their glycemic regimen. These participants were instructed to inject insulin glargine in the evening, starting at 2, 4 or 6 units (depending on their initial FPG) and to increase the dose at least once per week targeting a self-measured FPG level ≦5.3 mmol/l (95 mg/dl) and ≧4 mmol/l (72 mg/dl). […] If participants developed uncontrolled hyperglycemia, investigators were permitted to add rapid-acting insulin. No other glucose-lowering medication could be added or increased. FPG levels were measured in the local laboratory at every visit and the results were regularly reviewed along with the dose of insulin to ensure that insulin was being effectively trirated. People not diagnosed with diabetes by the time of the penultimate study visit down-titrated insulin glargine by 10 units per day and stopped any metformin that was prescribed.
Outcomes and other data were collected at scheduled study visits at 0.5, 1, 2, and 4 months after randomization and every 4 months thereafter. Weight, waist and hip circumference were measured annually. HbA1c levels were assayed in local laboratories at every visit for the first year and then annually in people without diabetes and every 4 months for people with diabetes. A first morning urine collection was sent centrally and assayed for creatinine and albumin at baseline, 2 yrs and study end.
Participants assigned to standard therapy continued their prior oral therapies and were managed according to the investigators' judgement and local guidelines for glycemic control and therapeutic approaches. Investigators were advised not to prescribe insulin for standard participants unless they were on full doses of 2 or more oral agents. If insulin was added glargine was not to be used. Participants assigned to basal insulin glargine who were taking a thiazolidinedione prior to randomization stopped this medication but continued to take other glucose-lowering agents. Insulin glargine (Lantus®, Sanofi) was added to their regimen starting at 2 to 6 units daily, based on fasting glucose levels. Participants were advised to inject the insulin in the evening and to self-titrate the dosage using a simple algorithm supported by the site investigators. Self-measured, plasma-referenced fasting capillary blood glucose tests were done at least twice-weekly to guide titration, with the goal of achieving and maintaining fasting glucose 5.3 mmol/l (≦95 mg/dl). Other oral agents could be continued, reduced, or discontinued as judged appropriate during treatment with insulin glargine. The only oral agent that could be added (if not previously used) was metformin, which the site investigator initiated for individual participants at doses of 500-1000 mg/day if judged necessary to limit the risk of hypoglycemia. The importance of lifestyle management was continuously reinforced in both treatment groups.
In addition to self-measured glucose tests, venous blood for measurement of fasting plasma glucose (FPG) and A1C at local laboratories was collected at intervals during treatment. In the case of A1C, measurements were done at baseline, yearly thereafter, and at the end of treatment for all participants. Measurements of FPG were done annually and at the end of treatment for all participants in the glargine treatment group, and at baseline, after 2 years, and at the end of treatment for those using standard therapy. […]

[2] = cited from earlier work
[3] = fully adjusted logistic regression, glargine vs standard care, p<0.001
[4] = participants with diabetes, 2 years
[5] = participants with diabetes, 5 years
[6] = participants with diabetes, 7 years
[7] = participants without diabetes, 5 years
[8] = without diabetes at entry, throughout randomized treatment, both regimens

Substance: (Gly A21) Arg (B31) Arg (B32) human insulin [insulin glargine]
- A1c (%), median (interquartile range) ([1]; Year 1, baseline 6.4): 5.9 (5.5, 6.4) %
- FPG (mM), median (interquartile range) ([1]; Year 1, baseline 6.9): 5.2 (4.6, 5.9) mM
- A1c (%), median (interquartile range) ([1]; Year 2): 6.0 (5.5, 6.5) %
- FPG (mM), median (interquartile range) ([1]; Year 2): 5.0 (4.4, 5.8) mM
- A1c (%), median (interquartile range) ([1]; Year 3): 6.0 (5.6, 6.6) %
- FPG (mM), median (interquartile range) ([1]; Year 3): 5.0 (4.4, 5.7) mM
- A1c (%), median (interquartile range) ([1]; Year 4): 6.1 (5.7, 6.7) %
- FPG (mM), median (interquartile range) ([1]; Year 4): 5.1 (4.5, 5.8) mM
- A1c (%), median (interquartile range) ([1]; Year 5): 6.2 (5.7, 6.8) %
- FPG (mM), median (interquartile range) ([1]; Year 5): 5.1 (4.5, 6.0) mM
- A1c (%), median (interquartile range) ([1]; Year 6): 6.3 (5.8, 6.8) %
- FPG (mM), median (interquartile range) ([1]; Year 6): 5.2 (4.6, 6.1) mM
- A1c (%), median (interquartile range) ([1]; Year 7): 6.2 (5.8, 7.1) %
- FPG (mM), median (interquartile range) ([1]; Year 7): 5.2 (4.5, 6.3) mM
- increase in the likelihood of maintaining mean A1C below 6.5% for 5 years ([1]; allocation to basal insulin glargine vs standard care): 2-3 fold
- participants achieving a FPG level ≦5.2 mmol/l ([1]; by 1 year, maintained throughout the trial): 50%
- participants achieving A1C <6.5% ([1]; diabetic subgroup, 1 year, 47% before treatment): 74%
- participants achieving A1C <7.0% ([1]; diabetic subgroup, 1 year, 66% before treatment): 88%
- participants achieving A1C <7.0% ([1]; diabetic subgroup, 5 years): 77%
- participants achieving A1C <6.5% ([1]; diabetic subgroup, after 5 years): 60%
- people achieving FPG levels below 5.3 mmol/l (95 mg/dl) ([1]; for most of the trial): more than 50%
- people achieving FPG levels ≦6.0 mmol/l (108 mg/dl) ([1]; for most of the trial): 75%
- OR (95% CI), 1-year A1C 6.5% (attainment) [1, 3]: 2.50 (2.29-2.74)
- OR (95% CI), 1-year A1C 7.0% (attainment) [1, 3]: 2.735 (2.440-3.067)
- OR (95% CI), 5-year mean A1C 6.5% (maintenance) [1, 3]: 2.98
- OR (95% CI), 5-year mean A1C 7.0% (maintenance) [1, 3]: 2.408 (2.122-2.732)
- OR (95% CI), 5-year mean A1C 6.5% (maintenance) ([1]; fully adjusted logistic regression, glargine vs standard care, p<0.001, listed as Glargine): 2.975 (2.671-3.315)
- median A1C (inter-quartile range) ([1]; participants with diabetes, 1 year, baseline 6.5): 6.0 (5.5-6.5) %
- median FPG (inter-quartile range) ([1]; participants with diabetes, 1 year, baseline 7.2): 5.2 (4.6-5.9) mmol/l
- median A1C (inter-quartile range) [1, 4]: 6.0 (5.6-6.6) %
- median FPG (inter-quartile range) [1, 4]: 5.0 (4.4-5.8) mmol/l
- median A1C (inter-quartile range) [1, 5]: 6.3 (5.8-6.9) %
- median FPG (inter-quartile range) [1, 5]: 5.1 (4.5-6.1) mmol/l
- median A1C (inter-quartile range) [1, 6]: 6.3 (5.8-6.9) %
- median FPG (inter-quartile range) [1, 6]: 5.3 (4.5-6.4) mmol/l
- median A1C ([1]; participants without diabetes, 1 year, baseline 5.7): 5.6%
- median FPG (inter-quartile range) ([1]; participants without diabetes, 1 year, baseline 6.1): 5.0 (4.5-5.5) mmol/l
- median FPG (inter-quartile range) ([1]; participants without diabetes, 2 years): 4.9 (4.5-5.5) mmol/l
- median A1C [1, 7]: 5.8%
- median FPG (inter-quartile range) [1, 7]: 5.0 (4.5-5.7) mmol/l
- median FPG (inter-quartile range) ([1]; participants without diabetes, 7 years): 5.1 (4.5-5.8) mmol/l
- participants achieving A1C <6.5% [1, 8]: more than 75%
- participants achieving A1C <7.0% [1, 8]: more than 90%
- mean duration of action ([2]; in vivo): approximately 20 hours
- duration of glucose lowering effect ([2]; smooth, without a definite peak): 24 h
